# Laboratory results taken from PMC7875557, “Development and optimization of sitagliptin and dapagliflozin loaded oral self-nanoemulsifying formulation against type 2 diabetes mellitus” (Drug Delivery, 2020).
# Legend:
# [1] = DPPH free radical scavenging assay
# Experimental: For antioxidant activity, DPPH (2, 2-diphenyl-1-picrylhydrazyl) free radical scavenging assay was employed. This method was carried out as previously described by Brand-Williams et al. ([1995]). The method quantifies free radical scavenging capacity of the investigated samples. DPPH is a molecule that contains a stable free radical. In the presence of an antioxidant which is able to donate an electron to DPPH, the change in the absorbance at 517 nm is followed spectrophotometrically (UV mini-1240, Shimadzu, Japan). Various concentrations of […] (10, 50, 100, 500, and 1000 μg/mL) were used. The assay mixture was made up of a total volume of 1 mL, containing 500 μL of the sample, 125 μL of the prepared DPPH, and 375 μL of methanol. As positive control, ascorbic acid was used. The samples were incubated for 30 min at 25 °C, after which the decrease in absorbance was measured at λ = 517 nm. Radical scavenging activity of the samples were calculated using the following equation below: (1) % radical scavenging activity=(Abs control − Abs sample/Abs control) ×100
# [2] = In vivo oral bioavailability / pharmacokinetic study; conditions: male, Wister, rat, plasma, 6 mg/kg; rats, after oral administration; read-out: Time to peak plasma levels
# Experimental: Male rats (Wister, 200–220 g) were obtained from Laboratory Animal Center of pharmacy college, KSU. The rats were randomly allocated into two groups, each group consisted of six rats: the representative SNEDDS [F1, BSO/CMCM/CrEL (15/35/50%w/w)] (group A) and marketed drug (group B). The animals were fasted for 12 h prior to the oral administration of SNEDDS of DN (6 mg/kg rat). The experimental procedures were carried out in accordance with the principles of National Institute of Health Guide for the Care and Use of Laboratory Animals (NIH Publications No. 80–23; 1996) as well as the animal facilities guidelines from the Ethical committee of Experimental Animal Care Center, College of Pharmacy, King Saud University (Clearance No. KSU-SE—19-105; 20th November 2019). […]
# In vivo animal studies were performed using only DN in the dose and SN was not included due to the different pharmacokinetic features of the SN and DN. […] The concentration of DN in plasma was determined by UHPLC as follow: A 775 μL of methanol was added to 225 μL aliquot of plasma. […] The nonlinear pharmacokinetic parameters such as Cmax, Tmax, and AUC(0–∞) were determined.
# The pharmacokinetic assessment was done after oral administration on the basis of DN concentrations in the plasma samples of the rat. […] This was vortexed and transferred to an auto sampler vial to be analyzed in the UHPLC system. […]
# [3] = Equilibrium solubility (shake flask); assay type: physicochemical; conditions: for Solubility in Water (100%): 100% water
# Experimental: […] The samples were prepared by adding an excess amount of SN and DN to the formulations, which was then thoroughly agitated with a vortex mixer to ensure adequate mixing. Three replicates were taken for each formulation. The samples for the solubility experiments were analyzed using in-house developed UHPLC method by dissolving each of the formulations with an appropriate solvent.
# [4] = test system: Diabetic mice (STZ); assay: Anti-diabetic study in streptozotocin-induced diabetic mice; assay type: in vivo, Swiss albino mice; conditions: DN 6 mg/kg, SN 10 mg/kg; for Glucose level 0 h: STZ (60 mg/kg) diabetic mice, before dose; for Glucose level 0 h / Glucose level 2 h: Mean ± SEM, n = 3; for Glucose level decrease / Glucose level 2 h / % Inhibition of glucose level: STZ diabetic mice; for Glucose level decrease: 0 h to 2 h; for Glucose level 2 h / % Inhibition of glucose level: 2 h after dose
# Experimental: Male Swiss albino mice (20–25 g) roughly of same age group were procured from the Experimental Animal Care Center, College of Pharmacy, King Saud University, with the approval Clearance No. KSU-SE—19-105 (20th November 2019) by the Ethical committee. The animals used in this study were kept at 22 °C temperature by maintaining 55% humidity and light/dark (12/12 h) conditions. They were provided free access to Purina chow and drinking water ad libitum. The […] were initially acclimatized for seven days prior to being used for the anti-diabetic studies.
# Diabetes was induced overnight in fasted mice by single intraperitoneal (IP) injection of 60 mg/kg of streptozotocin (STZ) that was freshly dissolved in 0.1 M cold citrate buffer at pH 4.5. After 72 h of STZ administration, blood was collected from the animals and plasma glucose levels were examined. Animals that were confirmed diabetic by the elevated plasma glucose levels (>200 mg/dl) were used for the experiment. The animals were then randomly assigned into seven groups of three animals and received the following treatments: Group I: Normal control mice treated with Normal saline; Group II: Diabetic control mice treated with Normal saline; Group III: Diabetic mice treated with thymoquinone 5 mg/kg (IP); Group IV: Diabetic mice treated with DN 6 mg/kg (IP); Group V: Diabetic mice treated with SN 10 mg/kg (IP); Group VI: Diabetic mice treated with DN 6 mg/kg (IP) and SN 10 mg/kg (IP); Group VII: Diabetic mice treated with marketed product Dapazin® 6 mg/kg (IP).
# [5] = test system: SGLT2; conditions: ref Santos et al., 2017, Wilding et al.; cited from earlier work
# [6] = β-carotene–linoleic acid (bleaching) assay; conditions: 1000 µg
# Experimental: The antioxidant activity of the samples were evaluated using the β-carotene bleaching method described by Velioglu et al. ([1998]) with modifications. One milliliter (1 mL) of a 0.2 mg/mL solution of β -carotene in chloroform was added to flasks containing 0.2 mL of Tween 20 and 0.02 mL of linoleic acid. The chloroform was removed in a rotary evaporator at 40 °C. The resulting mixture was then diluted with 100 mL of distilled water and mixed for approximately 2 min to form an emulsion. Similarly, another mixture was prepared without β-carotene to use as a blank. A control containing 0.2 mL of 80% (v/v) methanol was also used instead of sample. Aliquot of the emulsion (5 mL) was added to 0.2 mL of the sample at 1 mg/mL. As a standard, Rutin (1 mg/mL) was used. The tubes were incubated in a water bath at 40 °C for 2 h. Absorbance was measured at 470 nm at 15 min intervals, using a UV–visible spectrophotometer (UV mini-1240, Shimadzu, Japan) and the antioxidant activity was calculated from the equation below: (2) % of antioxidant activity= (Abs0 − Abst)/(Abs0° − Abst°) ×100 where, Abs0 and Abs0° represented the absorbance values measured at zero time of incubation for sample extract and control, respectively. Abst and Abst° are the absorbance values at t = 120 min for samples and control, respectively.
structure (smiles),measurement,setting,value
O=C1O[C@H]([C@@H](O)CO)C(O)=C1O [Ascorbic acid],Radical scavenging activity,[1]; 10 µg,33.7 ± 3.5%
same,Radical scavenging activity,[1]; 50 µg,74.1 ± 1.3%
same,Radical scavenging activity,[1]; 100 µg,85.6 ± 3.2%
same,Radical scavenging activity,[1]; 500 µg,88.7 ± 2.7%
same,Radical scavenging activity,[1]; 1000 µg,91.7 ± 3.4%
"CCOc1ccc(Cc2cc([C@@H]3O[C@H](CO)[C@@H](O)[C@H](O)[C@H]3O)ccc2Cl)cc1 [Dapagliflozin, dapagliflozin]",Tmax,[2],≤ 4 h
same,Solubility in Water (100%),[3],1.48 ± 0.14 mg/g
same,Glucose level 0 h,[4],362.00 ± 4.93 mg/dL
same,Glucose level decrease,[4],143 mg/dL
same,Glucose level 2 h,[4],219.00 ± 7.57 mg/dL
same,% Inhibition of glucose level,[4]; listed as DN,39.50%
same,% Inhibition of glucose level,[4]; listed as DN (pure),39.50↓ %
same,Selectivity for SGLT2 over SGLT1,[5],1200 fold
C[C@@H]1O[C@@H](OC[C@H]2O[C@@H](Oc3c(-c4ccc(O)c(O)c4)oc4cc(O)cc(O)c4c3=O)[C@H](O)[C@@H](O)[C@@H]2O)[C@H](O)[C@H](O)[C@H]1O [Rutin],Total antioxidant activity,[6],93.1 ± 1.2%
"N[C@@H](CC(=O)N1CCn2c(nnc2C(F)(F)F)C1)Cc1cc(F)c(F)cc1F [Sitagliptin, sitagliptin]",Solubility in Water (100%),[3],3.62 ± 0.11 mg/g
same,Loading of SN in the anhydrous SNEDDS relative to aqueous solubility,[3]; from equilibrium solubility of diluted formulations,> 400%
same,Glucose level 0 h,[4],381.33 ± 11.25 mg/dL
same,Glucose level decrease,[4],208 mg/dL
same,Glucose level 2 h,[4],173.33 ± 7.53 mg/dL
same,% Inhibition of glucose level,[4]; listed as SN,54.54%
same,% Inhibition of glucose level,[4]; listed as SN (Pure),54.54↓ %
